These results are taken from patent US20050004132A1, “Nitrogenous tetrahydropyridyl-alkyl-heterocycles with tnf activity” (priority 2001, published 2005).

Structures can show the parent of a compound that is named as a salt.

In turn, `Fc1cccc(C2=CCN(CCc3cccc(-c4ccccn4)c3)CC2)c1` (as salt: oxalate) yielded a melting point of 175 to 177 °C. In the case of `Clc1cccc(C2=CCN(CCc3cccc(-c4ccncc4)c3)CC2)n1` (as salt: oxalate), the melting point is 183 to 186 °C. With `Cc1ccc(-c2cccc(CCN3CC=C(c4cccc(C(F)(F)F)c4)CC3)c2)cn1` (as salt: oxalate) the figure was 170 to 173 °C. With `FC(F)(F)c1cccc(C2=CCN(CCc3cccc(-c4ccccn4)c3)CC2)c1` (as salt: oxalate) the figure was 182 to 186 °C.

For `FC(F)(F)c1cccc(C2=CCN(CCc3cccc(-c4ccccn4)c3)CC2)n1` (as salt: oxalate), the melting point was 126 to 129 °C.

In turn, `FC(F)(F)c1cccc(C2=CCN(CCc3cccc(-c4cnccn4)c3)CC2)c1` (as salt: oxalate) [12] came in with a melting point of 205 to 207 °C. The figure for `FC(F)(F)c1cccc(C2=CCN(CCc3cccc(-c4cnccn4)c3)CC2)c1` (as salt: oxalate) [14] is 199 to 201 °C.

As a reminder, the melting point is the temperature of the solid-liquid transition.
